The target of test [1] is T1, B-Raf^V600E (Homo sapiens, UniProt P15056, V600E). Further details: method as in PMID 22376051, PMID 22763369, PMID 22883026, PMID 23906342. Conditions: literature values used as 3D-QSAR data set; read-out: Kinase IC50 B-Raf^V600E; cited from earlier work.
The target in test [2] is T2, VEGFR2 (Homo sapiens, UniProt P35968). More on the design: method as in PMID 22376051, PMID 22763369, PMID 22883026, PMID 23906342. Conditions: literature values used as 3D-QSAR data set; read-out: Kinase IC50 VEGFR2; cited from earlier work.
For another test, the system named is wild-type B-Raf. More on the design: method as in PMID 22376051, PMID 22763369, PMID 22883026, PMID 23906342. Conditions: cited from earlier work.
The test system of the next test is C-Raf. More on the design: method as in PMID 22376051, PMID 22763369, PMID 22883026, PMID 23906342. Conditions: cited from earlier work.
Test [3] addresses T1, B-Raf^V600E. Description: B-Raf^V600E kinase inhibition (literature data set). It is filed as biochemical. The note with it: −log IC50 of literature IC50; read-out: B-Raf Actual pIC50 (converted). The procedure: The IC50 values of all compounds for B-Raf and KDR inhibition were converted to the −log IC50 (pIC50) as dependent variables in the 3D-QSAR analysis. The 3D structures for all 40 compounds were built and minimized, and then Gasteiger-Hückel charge was calculated. All works were all done in SYBYL 6.9 (Tripos, Inc.: St. Louis, MO, USA, 2002).

Test [4] addresses T2, VEGFR2. The experiment in a line: VEGFR2 (KDR) kinase inhibition (literature data set). It is filed as biochemical. The procedure: The IC50 values of all compounds for B-Raf and KDR inhibition were converted to the −log IC50 (pIC50) as dependent variables in the 3D-QSAR analysis. The 3D structures for all 40 compounds were built and minimized, and then Gasteiger-Hückel charge was calculated.

The target in test [5] is T1, B-Raf^V600E. Description: B-Raf^V600E inhibitory activity of designed new compounds (preliminary pharmacological evaluation). The format is biochemical. The note with it: for IC50: preliminary biological tests. From the text:
(§1) The designed molecules were synthesized and the preliminary pharmacological evaluation would be used to verify the biological activity and our design strategy.

The target of another test is KDR (Homo sapiens, UniProt P35968). Description: KDR inhibitory activity of designed new compounds (preliminary pharmacological evaluation). It is filed as biochemical. The note with it: for IC50: preliminary biological tests.
Excerpt: as §1

Where two headings read alike, the source gives them in different places. Where only a bound is given, the exact number is not on record here.

Chain of KDR (P35968 20-1356): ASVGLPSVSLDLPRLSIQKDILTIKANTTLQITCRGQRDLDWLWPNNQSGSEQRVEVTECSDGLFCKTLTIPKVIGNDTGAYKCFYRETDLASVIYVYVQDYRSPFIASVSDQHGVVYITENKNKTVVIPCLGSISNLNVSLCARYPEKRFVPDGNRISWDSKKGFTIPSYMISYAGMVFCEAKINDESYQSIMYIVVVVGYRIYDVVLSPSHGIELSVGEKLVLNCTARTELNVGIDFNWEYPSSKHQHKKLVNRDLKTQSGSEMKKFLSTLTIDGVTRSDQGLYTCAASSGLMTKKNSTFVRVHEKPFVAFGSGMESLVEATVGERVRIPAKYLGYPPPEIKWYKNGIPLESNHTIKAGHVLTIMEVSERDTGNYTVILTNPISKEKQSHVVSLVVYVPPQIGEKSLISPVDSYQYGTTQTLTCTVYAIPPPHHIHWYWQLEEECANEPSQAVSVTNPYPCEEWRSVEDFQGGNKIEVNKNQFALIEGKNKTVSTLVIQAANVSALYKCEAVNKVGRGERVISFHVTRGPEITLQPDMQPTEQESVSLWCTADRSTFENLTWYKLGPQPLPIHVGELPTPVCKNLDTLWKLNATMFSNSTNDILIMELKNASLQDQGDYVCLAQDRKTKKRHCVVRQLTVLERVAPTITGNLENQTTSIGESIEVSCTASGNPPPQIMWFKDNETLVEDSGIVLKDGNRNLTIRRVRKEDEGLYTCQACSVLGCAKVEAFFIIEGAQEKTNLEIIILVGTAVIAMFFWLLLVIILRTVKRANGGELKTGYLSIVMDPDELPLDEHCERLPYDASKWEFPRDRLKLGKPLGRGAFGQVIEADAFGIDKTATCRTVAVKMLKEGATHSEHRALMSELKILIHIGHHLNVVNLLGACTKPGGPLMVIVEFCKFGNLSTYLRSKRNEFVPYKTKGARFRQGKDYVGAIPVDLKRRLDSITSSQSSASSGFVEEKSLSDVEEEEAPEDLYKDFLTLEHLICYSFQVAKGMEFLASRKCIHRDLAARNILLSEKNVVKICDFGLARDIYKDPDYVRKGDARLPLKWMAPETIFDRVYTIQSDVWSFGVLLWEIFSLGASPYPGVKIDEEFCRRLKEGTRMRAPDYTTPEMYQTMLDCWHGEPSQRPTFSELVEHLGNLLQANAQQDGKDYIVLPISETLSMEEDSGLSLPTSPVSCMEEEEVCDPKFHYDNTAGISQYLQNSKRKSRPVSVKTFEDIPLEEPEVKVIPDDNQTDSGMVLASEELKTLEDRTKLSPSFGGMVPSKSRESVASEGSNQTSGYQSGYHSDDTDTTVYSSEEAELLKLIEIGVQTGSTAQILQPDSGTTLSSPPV
T2 sequence (P35968 806-1171): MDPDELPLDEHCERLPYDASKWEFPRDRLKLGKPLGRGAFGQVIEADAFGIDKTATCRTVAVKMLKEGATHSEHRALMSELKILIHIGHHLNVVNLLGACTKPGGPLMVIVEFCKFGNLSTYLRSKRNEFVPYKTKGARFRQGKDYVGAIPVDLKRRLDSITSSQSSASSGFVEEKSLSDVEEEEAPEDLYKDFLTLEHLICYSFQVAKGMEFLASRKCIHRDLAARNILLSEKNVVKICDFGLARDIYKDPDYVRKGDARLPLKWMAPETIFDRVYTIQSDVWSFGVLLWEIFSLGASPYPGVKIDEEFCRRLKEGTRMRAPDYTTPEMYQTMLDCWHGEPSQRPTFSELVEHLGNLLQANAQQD
T1 sequence (P15056 whole entry V600E): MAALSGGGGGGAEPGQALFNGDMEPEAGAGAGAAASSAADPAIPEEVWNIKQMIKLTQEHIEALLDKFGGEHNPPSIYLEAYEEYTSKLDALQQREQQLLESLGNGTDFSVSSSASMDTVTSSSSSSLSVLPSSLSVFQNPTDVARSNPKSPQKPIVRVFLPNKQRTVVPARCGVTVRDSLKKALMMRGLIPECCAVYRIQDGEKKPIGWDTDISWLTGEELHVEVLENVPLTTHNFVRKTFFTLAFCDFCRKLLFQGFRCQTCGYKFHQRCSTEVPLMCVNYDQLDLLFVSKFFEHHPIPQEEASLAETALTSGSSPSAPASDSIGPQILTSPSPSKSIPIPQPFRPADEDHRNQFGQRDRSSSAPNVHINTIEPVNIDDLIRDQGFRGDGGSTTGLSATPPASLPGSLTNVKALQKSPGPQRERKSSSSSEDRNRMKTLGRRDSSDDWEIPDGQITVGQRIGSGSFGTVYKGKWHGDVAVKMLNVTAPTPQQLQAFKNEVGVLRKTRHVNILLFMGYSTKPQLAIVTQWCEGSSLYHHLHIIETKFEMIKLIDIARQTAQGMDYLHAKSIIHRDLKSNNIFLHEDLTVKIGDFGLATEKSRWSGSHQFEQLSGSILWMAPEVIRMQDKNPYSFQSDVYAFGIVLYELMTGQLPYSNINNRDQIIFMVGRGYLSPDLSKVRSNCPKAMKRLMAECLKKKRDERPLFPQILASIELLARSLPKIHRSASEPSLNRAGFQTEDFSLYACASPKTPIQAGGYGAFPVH

For `N#CC1(c2cccc(C(=O)Nc3cc(Oc4ccc5nc(NC(=O)C6CC6)sc5n4)ccc3F)c2Cl)CC1` [Compound 0JA], the IC50 was 7 nM at B-Raf^V600E [1], 2.2 nM at VEGFR2 [2], 12 nM with wild-type B-Raf and 1.5 nM with C-Raf.

Regarding `CC(=O)Nc1nc2ccc(Oc3ccc(F)c(NC(=O)c4cccc(C5(C#N)CC5)c4Cl)c3)nc2s1` [Compound 3-5], the IC50 at B-Raf^V600E [3] is 6.31 nM; against VEGFR2 [4], 3.39 nM; at B-Raf^V600E [1], 6.3 nM; on VEGFR2 [2], 3.4 nM.

As to `CC(=O)Nc1nc2cnc(Oc3cc(NC(=O)c4cccc(CCC#N)c4)ccc3C)nc2s1` [Compound 4-1], the IC50 was 51.3 nM on B-Raf^V600E [3], 407 nM against VEGFR2 [4], 51 nM at B-Raf^V600E [1] and 410 nM on VEGFR2 [2].

As for `CC(=O)Nc1nc2cnc(Oc3cc(NC(=O)c4cccc(OC(C)(C)C#N)c4)ccc3C)nc2s1` [Compound 4-3], the IC50 on B-Raf^V600E [3] was 72.4 nM; at VEGFR2 [4], 513 nM; on B-Raf^V600E [1], 73 nM; at VEGFR2 [2], 510 nM.

Take `CNC(=O)c1nc2ccc(C(=O)c3cccc(NC(=O)c4ccc(C)cc4)c3)cc2[nH]1` [Compound D1]: on B-Raf^V600E [5], the “Actual pIC50 B-Raf” value is 6.55 and the IC50 was determined as 280 nM. Also, at KDR, the “Actual pIC50 KDR” value is 6.00 and the IC50 was 990 nM.

With `CNC(=O)c1nc2ccc(C(=O)c3cccc(NC(=O)c4cccc(Cl)c4)c3)cc2[nH]1` [Compound D2], on B-Raf^V600E [5], the “Actual pIC50 B-Raf” value came out at 6.38 and the IC50 is 420 nM. Also, at KDR, the “Actual pIC50 KDR” value stood at 6.68 and the IC50 stood at 210 nM.

In the case of `CNC(=O)c1nc2ccc(C(=O)c3cccc(NC(=O)c4ccc(Cl)cc4)c3)cc2[nH]1` [Compound D3], the IC50 against B-Raf^V600E [5] is over 5000 nM. Besides, at KDR, the “Actual pIC50 KDR” value is listed as 6.02 and the IC50 is 950 nM.

In turn, `CNC(=O)c1nc2ccc(C(=O)c3cccc(NC(=O)c4cccc(F)c4)c3)cc2[nH]1` [Compound D4] came in with an IC50 on B-Raf^V600E [5] of over 5000 nM. On KDR, the “Actual pIC50 KDR” value stood at 6.05 and the IC50 came to 890 nM.

Consider `CNC(=O)c1nc2ccc(C(=O)c3cccc(NC(=O)c4ccc(Cl)c(Cl)c4)c3)cc2[nH]1` [Compound D5], for which, on B-Raf^V600E [5], the “Actual pIC50 B-Raf” value is given as 6.82. The results for the IC50 against B-Raf^V600E [5] and on KDR were 150 nM and over 5000 nM, respectively.

Consider `CCNC(=O)c1nc2ccc(C(=O)c3cccc(NC(=O)c4cccc(C(F)(F)F)c4)c3)cc2[nH]1` [Compound D6], for which the IC50 against B-Raf^V600E [5] is over 5000 nM; on KDR, 390 nM. The “Actual pIC50 KDR” value on KDR came to 6.41.

In the case of `CC(C)NC(=O)c1nc2ccc(C(=O)c3cccc(NC(=O)Nc4cccc(C(F)(F)F)c4)c3)cc2[nH]1` [Compound D7], the IC50 was over 5000 nM against B-Raf^V600E [5] and 1520 nM at KDR.

As for `O=C(Nc1cccc(C(=O)c2ccc3nc(C(=O)NC4CC4)[nH]c3c2)c1)Nc1cccc(C(F)(F)F)c1` [Compound D8], the IC50 on B-Raf^V600E [5] is over 5000 nM; on KDR, 1320 nM.

These data come from publication PMC4632759, “Studies on [5,6]-Fused Bicyclic Scaffolds Derivatives as Potent Dual B-Raf^V600E/KDR Inhibitors Using Docking and 3D-QSAR Approaches” (International Journal of Molecular Sciences, 2015).
